These results are taken from patent US11078211B2, “Photoresponsive nucleotide analog capable of photocrosslinking in visible light region” (JAPAN ADVANCED INSTITUTE OF SCIENCE AND TECHNOLOGY, priority 2017, dated 2021).

For data set [1] the following is noted: irradiation with light having 350 nm; cited from earlier work.
Data set [2] has as its system ODN(T) (5′-ACGGGTGCA-3′), thymine. Put plainly: Photocrosslinking reaction targeted for thymine, HPLC analysis after light irradiation. The conditions noted are these: for conversion rate: irradiation for one hour. The protocol:
(§1) To an equal amount mixture (5 μM in 50 mM Na-Cacodylate buffer (pH 7.4), 100 mM NaCl) of the oligo DNA containing pc-D [hereinafter referred to as ODN (Y·pc-D), in which Y is A (adenine) or G (guanine)] and a complementary oligo DNA [hereinafter referred to as ODN(Z), in which Z is T (thymine) or C (cytosine)] was added deoxyuridine (25 μM) as an internal standard, and irradiated with light at 4° C. (400 nm, […]). The solution was analyzed by HPLC (eluent: acetonitrile/50 mM of ammonium formate; 1-20% of acetonitrile/10 min; a flow rate: 0.2 mL/min) to evaluate photoreactivity.
FIG. 3a is an explanatory diagram showing the flow of the operations. In the ODN (A-pc-D)(5′-TGCAXCCGT-3′)(SEQ ID NO: 1) in which the target of photocrosslinking is thymine (T). the nucleoside analog (pc-D) according to the present invention is introduced as an improved photoreactive element at a position of X in the sequence.
Charts arranged in the vertical axis direction correspond to light irradiation times (0 sec, 1 sec, 5 sec. 10 sec, and 30 sec), and the horizontal axis indicates a retention time (minutes). The peaks of ODN (A⋅pc-D) and ODN (T), which were present before light irradiation (0 sec), were reduced by the light irradiation, and at the same time, a peak of a photodimer (ODN (pc-D/T)) with ODN (A⋅pc-D) and ODN (T) crosslinked appeared. As the light irradiation time increased, the peak area of(ODN (pc-D/T)) increased, confirming that the photocrosslinking reaction was progressing. FIG. 3c is a graph showing a change in a crosslinking rate as a function of light irradiation time. In FIG. 3c, the horizontal axis represents a light irradiation time (seconds), and the vertical axis represents a conversion rate (%). The conversion rate, i.e., a rate of change from a monomer to a dimer, was defined as a conversion rate of 100% for a case of being completely changed to the dimer.
The respective conversion rates were 86% at 450 nm, 70% at 500 nm, and 38% at 550 nm.
The photocrosslinking reaction was carried out by the same procedure as that of ODN (A-pc-D), using a pc-S-containing oligo DNA in which T (thymine) was a target for the photocrosslinking (5′-TGCAXCCGT-3′: hereinafter referred to as ODN (A-pc-S)) (SEQ ID NO: 5), and ODN (T) which was a complementary oligo DNA (FIG. 6a).
Charts arranged in the vertical axis direction correspond to light irradiation times (0 seconds, 60 seconds), respectively, and the horizontal axis indicates a retention time (minutes).

The subject of data set [3] is ODN (C) (5′-ACGGGCGCA-3′), cytosine. Put plainly: Photocrosslinking reaction targeted for cytosine, HPLC analysis after light irradiation. To be noted: 400 nm, 30 seconds. The protocol:
as §1
The photocrosslinking reaction was carried out by the same procedure as that of ODN (A⋅pc-D), using a pc-D-containing oligo DNA in which C (cytosine) was a target for the photocrosslinking (5′-TGCGXCCGT-3′; hereinafter referred to as ODN (G-pc-D)) (SEQ ID NO: 3) and a complementary oligo DNA (5′-ACGGGCGCA-3′: hereinafter referred to as ODN (C))(FIG. 4a)(SEQ ID NO: 4). As a result of irradiation with light having 400 nm for 30 seconds, the conversion rate by photocrosslinking was 71% (FIG. 4b).

Consider `O=c1ccc2cc3ccoc3cc2o1` [psoralen], for which the “time required for photoreaction” value in data set [1] was “several hours”.

“ODN (A·pc-D): Oligo DNA 5′-TGCAXCCGT-3′, in which X is the nucleic acid photoreactive element (pc-D) (DNA TGCANCCGT; photoreactive element pc-D, chemistry not fully specified)”: the “conversion rate (monomer to photodimer)” value in data set [2] (400 nm, 10 seconds of irradiation, 4° C., 5 μM, pH 7.4) is listed as 94%. The crosslinking in data set [2] (400 nm, after one hour, 4° C.) is ~100%. Moreover, the values for the conversion rate in data set [2] (450 nm), in data set [2] (500 nm) and in data set [2] (550 nm) were 86%, 70% and 38%, respectively.

As to “ODN (A·pc-S): Oligo DNA 5′-TGCAXCCGT-3′, in which X is the nucleic acid photoreactive element (pc-S) (DNA TGCANCCGT; photoreactive element pc-S, chemistry not fully specified)”, the “photodimer formation (HPLC)” value in data set [2] (400 nm, 60 seconds) is “a peak of the photodimer (ODN (pc-S/T) appeared”.

As for “ODN (G-pc-D): Oligo DNA 5′-TGCGXCCGT-3′, in which X is the nucleic acid photoreactive element (pc-D) (DNA TGCGNCCGT; photoreactive element pc-D, chemistry not fully specified)”, the “conversion rate by photocrosslinking” value in data set [3] is 71%.
